Assay [1] can be described thus: toxicity to human hepatoma HepG2 cells – cell-based, cherry-picked samples, cytotoxicity control, dose response (AID 1159577). It is filed as functional.
Assay [2] is described as follows: P. falciparum Dd2 growth inhibitors, dose response, SYBR Green, cherry-picked samples (AID 1159567). It is filed as functional, cell-based.
For assay [3], the target named is T1, Dual specificity protein phosphatase 6 (Rattus norvegicus, UniProt Q64346).
T1 sequence (Q64346 whole entry): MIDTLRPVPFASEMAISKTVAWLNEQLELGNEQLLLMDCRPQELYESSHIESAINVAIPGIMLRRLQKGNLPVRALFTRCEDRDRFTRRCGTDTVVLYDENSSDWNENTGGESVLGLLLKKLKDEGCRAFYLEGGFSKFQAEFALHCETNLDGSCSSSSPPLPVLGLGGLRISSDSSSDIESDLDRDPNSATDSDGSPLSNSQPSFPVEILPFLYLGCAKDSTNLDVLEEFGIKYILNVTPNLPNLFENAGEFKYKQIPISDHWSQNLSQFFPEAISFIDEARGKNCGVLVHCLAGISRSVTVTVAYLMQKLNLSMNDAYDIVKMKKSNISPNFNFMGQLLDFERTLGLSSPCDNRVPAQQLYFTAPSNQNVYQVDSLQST
The assay can be described thus: inhibition of rat DUSP6 enzyme activity – biochemical, in vitro, primary screen (AID 425).

The target of a further assay is Paired box protein Pax-8 (Homo sapiens, UniProt Q06710). The assay can be described thus: PAX8 transcriptional activity inhibition in RMG-I – RMG-I cells, luciferase, cherry-pick, dose response (AID 687027).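 Further: luciferase reporter driven by Pax8 target thyroperoxidase promoter measured by SteadyGlo luminescence.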 It is filed as functional, cell-based.
Sequence of Paired box protein Pax-8 (Q06710 whole entry): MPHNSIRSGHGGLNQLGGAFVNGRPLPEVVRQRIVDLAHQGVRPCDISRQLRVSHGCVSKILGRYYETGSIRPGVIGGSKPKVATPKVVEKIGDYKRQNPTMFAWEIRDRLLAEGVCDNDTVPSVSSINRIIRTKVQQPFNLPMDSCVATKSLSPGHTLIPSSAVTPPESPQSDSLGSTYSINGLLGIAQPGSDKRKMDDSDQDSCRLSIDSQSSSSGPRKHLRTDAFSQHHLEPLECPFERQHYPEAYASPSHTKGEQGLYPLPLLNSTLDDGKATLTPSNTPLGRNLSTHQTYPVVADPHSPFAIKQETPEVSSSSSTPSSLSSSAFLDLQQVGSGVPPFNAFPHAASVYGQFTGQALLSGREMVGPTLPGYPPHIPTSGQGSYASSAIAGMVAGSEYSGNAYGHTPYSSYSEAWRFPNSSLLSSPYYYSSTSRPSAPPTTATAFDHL
Assay [4] can be described thus: Dd2 parasite growth inhibition in erythrocytes – SYBR Green, dry powder samples, set 9, dose response (AID 1159568). In kind it is functional, cell-based.
Assay [5] has as its target T2, Bcl-2-related protein A1 (Mus musculus, UniProt Q07440).
T2 sequence (Q07440 whole entry): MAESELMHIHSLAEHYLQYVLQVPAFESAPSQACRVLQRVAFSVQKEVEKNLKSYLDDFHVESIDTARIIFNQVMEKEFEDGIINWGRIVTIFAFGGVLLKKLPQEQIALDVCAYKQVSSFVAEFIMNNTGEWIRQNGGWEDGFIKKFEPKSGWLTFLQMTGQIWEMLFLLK
The assay can be described thus: small-molecule antagonists of Bfl-1/BH3 interaction – biochemical, TR-FRET, mouse Bfl-1, confirmation (AID 621).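 Further: TR-FRET binding of GST-Bfl-1 to FITC-labelled Bid peptide via terbium antibody.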

Assay [6] deals with T2, Bcl-2-related protein A1. The assay can be described thus: Bfl-1 binding inhibitors, SAR follow-up, biochemical, fluorescence polarization (AID 1070). For orientation: Fluorescence polarisation rises when a labelled molecule tumbles more slowly, as on binding a larger partner.
Assay [7] in a line: NIH3T3 cell viability loss – ATP luminescence, mouse fibroblasts, counter-screen, dose response (AID 2010).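 Further: cells exposed to compound for about 90 hours before reading.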 In kind it is functional, cell-based. On the technique in general: Counterscreens check selectivity or assay interference.
Assay [8] in a line: Trypanosoma cruzi growth suppression in host cells – NIH3T3 host cells, beta-gal luminescence, confirmation (AID 2044).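 Further: intracellular parasites grown in NIH/3T3 mouse fibroblasts as host cells; luminescent beta-galactosidase reporter signal from transgenic T. cruzi replicating inside host cells; inhibitors lower the luminescence signal.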 In kind it is functional, cell-based.
Assay [9] concerns the target Solute carrier family 12 member 2/member 5 (Homo sapiens, UniProt P55011+Q9H2X9). The assay can be described thus: KCC2 and NKCC1 inhibition by rubidium flux, cell-based, NKCC1 counter-screen (AID 1734). It is filed as functional, HEK293.
A further assay deals with Prothrombin (Homo sapiens, UniProt P00734). The assay can be described thus: Thrombin 1536 HTS Dose Response Confirmation. [Related pubchem assays: 1046 (Thrombin 1536 HTS; hits were confirmed in this assay)]. It is filed as functional.
Assay [10] addresses Glyceraldehyde-3-phosphate dehydrogenase (Homo sapiens, UniProt P04406).
A short description of assay [11]: M. tuberculosis H37Rv growth inhibitors, H37Rv strain (AID 1626). In kind it is functional.
Assay [12] deals with G-protein coupled receptor 55 (Homo sapiens, UniProt Q9Y2T6). The assay can be described thus: inhibition of LPI-stimulated GPR55 beta-arrestin translocation – imaging, U2OS, beta-arrestin-GFP, LPI agonist, primary screen (AID 2013).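 Further: antagonist potency measured as reduced agonist-driven arrestin aggregation.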 In kind it is functional.
Sequence of G-protein coupled receptor 55 (Q9Y2T6 whole entry): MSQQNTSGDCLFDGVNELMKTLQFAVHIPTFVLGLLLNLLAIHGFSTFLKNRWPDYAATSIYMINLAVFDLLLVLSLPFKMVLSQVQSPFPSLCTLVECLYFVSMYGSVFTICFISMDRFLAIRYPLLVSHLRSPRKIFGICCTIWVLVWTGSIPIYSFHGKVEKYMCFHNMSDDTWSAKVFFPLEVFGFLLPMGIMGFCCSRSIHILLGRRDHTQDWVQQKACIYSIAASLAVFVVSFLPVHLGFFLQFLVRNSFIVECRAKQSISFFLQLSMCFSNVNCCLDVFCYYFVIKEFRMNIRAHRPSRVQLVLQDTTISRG
For another assay, the target named is Cytochrome P450 2C9 (Homo sapiens, UniProt P11712).
Sequence of Cytochrome P450 2C9 (P11712 whole entry): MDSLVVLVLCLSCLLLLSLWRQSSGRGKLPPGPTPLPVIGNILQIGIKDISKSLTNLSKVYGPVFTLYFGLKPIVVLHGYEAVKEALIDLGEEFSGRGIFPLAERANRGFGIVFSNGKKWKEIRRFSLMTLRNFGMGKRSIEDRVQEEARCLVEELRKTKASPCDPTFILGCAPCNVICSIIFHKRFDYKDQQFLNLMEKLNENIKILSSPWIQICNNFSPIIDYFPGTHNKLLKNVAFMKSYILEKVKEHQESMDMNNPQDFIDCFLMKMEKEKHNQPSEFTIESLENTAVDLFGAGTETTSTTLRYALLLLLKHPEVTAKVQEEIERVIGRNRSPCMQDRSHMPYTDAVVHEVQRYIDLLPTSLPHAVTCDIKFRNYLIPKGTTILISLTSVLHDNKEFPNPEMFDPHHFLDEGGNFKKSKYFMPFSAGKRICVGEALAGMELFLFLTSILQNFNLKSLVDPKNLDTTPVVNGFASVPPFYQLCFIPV
Assay [13] is described as follows: Luminescence Cell-Based Dose Confirmation to Identify Activators of 5'UTR Stem-Loop Driven Alpha-Synuclein mRNA Translation in H4 Neuroglioblastoma Cells. [Related pubchem assays: 1829 (Project Summary), 1814 (Primary HTS)]. It is filed as functional.
Assay [14] can be described thus: Luminescence Cell-Based Dose Response to Identify Activators of Luciferase Translation or Activity in H4-C Neuroglioblastoma Cells. [Related pubchem assays: 1829 (Project Summary), 1814 (Primary HTS)]. In kind it is functional.
Assay [15] is described as follows: Luminescence Cell-Based Dose Response HTS to Identify Activators of Luciferase Translation or Activity in H4 […] Cells. [Related pubchem assays: 1829 (Project Summary), 1814 (Primary HTS)]. It is filed as functional.
Assay [16] in a line: Luminescence Cell-Based Dose Response to Identify Activators of 5'UTR Stem-Loop Driven Prion Protein mRNA Translation in H4-C Neuroglioblastoma Cells. [Related pubchem assays: 1829 (Project Summary), 1814 (Primary HTS)]. It is filed as functional.
Assay [17] can be described thus: Luminescence Cell-Based Dose Retest to Confirm Inhibitors of Cancer Stem Cells. [Related pubchem assays (depositor defined):AID2717, AID2721]. The note with it: Homo sapiens. In kind it is functional.

The source of these data is ChEMBL document CHEMBL1201862, “PubChem BioAssay data set” (2004).

One may read the AC50 as the concentration giving half of the maximal activity seen. For orientation: IC50 means the midpoint of a concentration-inhibition curve. The EC50 is the midpoint of the concentration-response curve.

Activity calls are given as the source filed them. Where only a bound is given, the exact number is not on record here.

Sequence of Glyceraldehyde-3-phosphate dehydrogenase (P04406 whole entry): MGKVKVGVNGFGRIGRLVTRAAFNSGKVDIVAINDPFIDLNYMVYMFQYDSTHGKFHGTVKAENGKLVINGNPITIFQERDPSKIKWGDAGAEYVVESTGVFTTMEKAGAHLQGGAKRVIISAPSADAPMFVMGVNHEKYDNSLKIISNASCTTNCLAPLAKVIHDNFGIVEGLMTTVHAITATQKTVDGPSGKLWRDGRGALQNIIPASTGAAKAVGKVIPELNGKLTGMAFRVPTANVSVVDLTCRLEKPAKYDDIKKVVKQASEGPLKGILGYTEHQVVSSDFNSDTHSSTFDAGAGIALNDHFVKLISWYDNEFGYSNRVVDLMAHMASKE

With `COc1cc(CN2C[C@@H]3N[C@H](C2)[C@H]3c2ccc(/C=C/c3ccccc3)cc2)cc(OC)c1`, the AC50 is 7.85 µM (active) in [1] and 2.11 µM (active) in [2].
With `Cc1c(N=c2c(=O)c3ccccc3c2=O)c(=O)n(-c2ccccc2)n1C`, the IC50 in [3] was > 100 µM (not active).
For `C[C@@H]1CN([C@@H](C)CO)C(=O)c2cc(N(C)C)ccc2O[C@@H](C)CCCCO[C@H]1CN(C)S(=O)(=O)c1ccc(F)cc1`, the AC50 on Paired box protein Pax-8 is 6.76 µM (active); in assay [4] it was 19.4 µM (active).
Turning to `Clc1nc2ccccc2cc1-c1nnn(-c2ccccc2)n1`, the IC50 against Bcl-2-related protein A1 [5] and on Bcl-2-related protein A1 [6] was > 100 µM (not active) throughout.
Consider `C(=C\c1ccc([C@@H]2[C@@H]3CN(Cc4nccs4)C[C@H]2N3)cc1)/c1ccccc1`, for which the AC50 in [1] is 7.83 µM (active); in assay [2], 3.67 µM (active).
As for `O=C(N/N=C/c1ccc([N+](=O)[O-])o1)c1cn(-c2ccccc2)nc1-c1ccccc1`, the concentration for a half-maximal effect (EC50) in [7] was > 60 µM (not active); in the assay “cells” it was 0.054 µM (active); in assay [8] it was < 0.1 µM (active).
`O=C(Nc1cccnc1)c1ccc(COc2ccccc2Cl)o1`: in [9], the IC50 was 12.1 µM (active).
As for `O=C(NC(=S)Nn1cnnc1)c1ccccc1Cl`, the IC50 on Prothrombin was > 50 µM (not active).
In the case of `CC1NC(C)C(C)N(C2=C(Cl)C(=O)N(c3ccc(Cl)c(Cl)c3)C2=O)C1C` (stereo not given), the IC50 at Bcl-2-related protein A1 [5] is 47 µM (active); in [10], > 100 µM (not active); at Bcl-2-related protein A1 [6], > 100 µM (not active).
As to `CN(Cc1ccccc1)S(=O)(=O)c1ccc(Cl)c(C(=O)NCCc2ccccn2)c1`, the IC50 in assay [9] was 2.5 µM (active).
Consider `O=C1N=C(N2CCOCC2)S/C1=C/c1ccc(-c2ccc(F)cc2)o1`, for which the values for the IC50 in assay [11] and in assay [12] were > 100 µM (active) and 2.93 µM (active), respectively.
As for `Cc1nc2c3cnn(-c4ccc(C)c(C)c4)c3ncn2n1`, on Cytochrome P450 2C9, the AC50 was 20 µM (inconclusive). For the same compound, the EC50 in [13] is 0.424 µM (active); in assay [14], 0.341 µM (active); in [15] it was < 0.1 µM (active); in [16] it was 0.298 µM (active).
For `C[C@@H]1CCCCO[C@@H](CN(C)S(=O)(=O)c2ccc(F)cc2)[C@H](C)CN([C@H](C)CO)C(=O)c2cc(N(C)C)ccc2O1`, in [4], the AC50 is 4.62 µM (active).
As to `CN1CCC(OC(=O)c2cccc(Cl)c2)CC1`, the AC50 in assay [17] was 1.3 µM (active). The EC50 in assay [7] is > 60 µM (not active); in “cells”, 0.102 µM (active); in assay [8] it was < 0.1 µM (active).
Turning to `Cc1nnc2n(c1=O)N=C(c1ccc(Cl)cc1)CS2`, the EC50 is 0.244 µM (active) in assay [13], 0.249 µM (active) in assay [14], < 0.1 µM (inconclusive) in assay [15] and 0.355 µM (active) in assay [16].
In the case of `COc1cc(CCC(=O)Nc2cccc(C(F)(F)F)c2)cc(OC)c1OC`, the IC50 on Prothrombin is listed as > 50 µM (not active).
